Structures can show the parent of a compound that is named as a salt. Where two headings read alike, the source gives them in different places.
How the values were obtained:
[1] = tested on: Mycobacterium tuberculosis H37Rv; assay: Mycobacterium tuberculosis H37Rv Inhibition Assay (MIC, resazurin fluorescence); type: cell-based; settings: ATCC 25618 / H37Rv
[2] = Whole-cell antimicrobial activity assay, broth microdilution (CLSI M7-A7), MIC; type: cell-based; settings: two-fold dilutions 0.016 to 16 mcg/mL, at least one of the listed Gram-positive/Gram-negative organisms, at least one exemplified salt or free base form, read-out: MIC against at least one of the organisms listed
Method: Whole-cell antimicrobial activity was determined by broth microdilution using the Clinical Laboratory Standards Institute (CLSI) recommended procedure, Document M7-A7, “Methods for Dilution Susceptibility Tests for Bacteria that Grow Aerobically”. The compounds were tested in serial two-fold dilutions ranging from 0.016 to 16 mcg/mL.
The minimum inhibitory concentration (MIC) was determined as the lowest concentration of compound that inhibited visible growth. A mirror reader was used to assist in determining the MIC endpoint.
Compounds were evaluated against Gram-positive organisms, including Staphylococcus aureus, Streptococcus pneumoniae, Streptococcus pyogenes, Enterococcus faecalis and Enterococcus faecium.
In addition, compounds were evaluated against Gram-negative organisms including Haemophilus influenzae, Moraxella catarrhalis, Escherichia coli, Pseudomonas aeruginosa, Proteus mirabilis, Enterobacter cloacae, Enterobacter aerogenes, Klebsiella pneumoniae, Acinetobacter baumanii and Stenotrophomonas maltophilia.

[3] = H37Rv strain (ATCC25618), Middlebrook 7H9+ADC, six days at 37° C., resazurin read after 48 hours, read-out: MIC value

| SMILES | MIC [1, 3] [µg/mL] | other results |
| --- | --- | --- |
| COc1ccc2ncc(=O)n(-c3cnc4c(c3)C[C@@H](O)[C@H](NCc3cc5c(cn3)OCCO5)C4)c2n1 (racemic) [Example 18, 4-{(6R/S,7R/S)-7-[(2,3-Dihydro[1,4]dioxino[2,3-c]pyridin-7-ylmethyl)amino]-6-hydroxy-5,6,7,8-tetrahydro-3-quinolinyl}-6-(methyloxy)pyrido[2,3-b]pyrazin-3(4H)-one dihydrochloride] |  | MIC ([1]; read-out: MIC value, H37Rv strain (ATCC25618), Middlebrook 7H9+ADC, six days at 37° C., resazurin read after 48 hours): ≤ 1.1 µg/mL |
| COc1ccc2ncc(=O)n(-c3cnc4c(c3)C[C@@H](O)[C@@H](NCc3cc5c(nn3)OCCO5)C4)c2n1 (relative stereo) [Example 13, Cis-4-{7-[(6,7-Dihydro[1,4]dioxino[2,3-c]pyridazin-3-ylmethyl)amino]-6-hydroxy-5,6,7,8-tetrahydro-3-quinolinyl}-6-(methyloxy)pyrido[2,3-b]pyrazin-3(4H)-one dihydrochloride] | ≤ 1.1 |  |
| COc1ccc2ncc(=O)n(-c3cnc4c(c3)C[C@@H](O)[C@@H](NCc3cc5c(cn3)OCCO5)C4)c2n1 (relative stereo) [Example 14, Cis-4-{7-[(2,3-Dihydro[1,4]dioxino[2,3-c]pyridin-7-ylmethyl)amino]-6-hydroxy-5,6,7,8-tetrahydro-3-quinolinyl}-6-(methyloxy)pyrido[2,3-b]pyrazin-3(4H)-one] | ≤ 1.1 |  |
| COc1ccc2ncc(=O)n(-c3cnc4c(c3)CCC(NCc3cc5c(nn3)OCCO5)C4)c2n1 (stereo not drawn) [Example 7, 4-{7-[(6,7-Dihydro[1,4]dioxino[2,3-c]pyridazin-3-ylmethyl)amino]-5,6,7,8-tetrahydro-3-quinolinyl}-6-(methyloxy)pyrido[2,3-b]pyrazin-3(4H)-one hydrochloride] | ≤ 1.1 |  |
| COc1ccc2ncc(=O)n(-c3cnc4c(c3)CCC(NCc3cc5c(cn3)OCCO5)C4)c2n1 (stereo not drawn) [Example 8, 4-{7-[(2,3-Dihydro[1,4]dioxino[2,3-c]pyridin-7-ylmethyl)amino]-5,6,7,8-tetrahydro-3-quinolinyl}-6-(methyloxy)pyrido[2,3-b]pyrazin-3(4H)-one hydrochloride] | ≤ 1.1 |  |
| COc1ccc2ncc(=O)n(-c3cnc4c(c3)OCC(NCc3cc5c(cn3)OCCO5)C4)c2n1 (stereo not drawn) [Example 17, 4-{3-[(2,3-Dihydro[1,4]dioxino[2,3-c]pyridin-7-ylmethyl)amino]-3,4-dihydro-2H-pyrano[3,2-b]pyridin-7-yl}-6-(methyloxy)pyrido[2,3-b]pyrazin-3(4H)-one fumarate] |  | MIC [2]: 16 µg/mL |
